Reference: PubChem BioAssay (NCI)
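Interpolation was linear, between the two tested concentrations surrounding the appropriate level; five concentrations were tested over 48 hours in 96-well plates. GI50: concentration for 50% inhibition of growth. TGI: total growth inhibition.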

Experiments:
Assay in all cases: growth of human tumour cells (NCI), 48 h
[1] = test system: BT-549 breast
[2] = test system: NCI-H522 lung
[3] = test system: TK-10 renal
[4] = test system: MCF7 breast
[5] = test system: SK-MEL-5 melanoma
[6] = test system: HL-60(TB) leukemia
[7] = test system: MALME-3M melanoma
[8] = test system: HCT-116 colon
[9] = test system: SK-MEL-28 melanoma
[10] = test system: SN12C renal

Compound	TGI [1]	TGI [2]	TGI [3]	TGI [4]	TGI [5]	TGI [6]	TGI [7]	TGI [8]	TGI [9]	TGI [10]	GI50 [2]	GI50 [3]	GI50 [4]	GI50 [5]	GI50 [6]	GI50 [7]	GI50 [8]	GI50 [9]	GI50 [10]	GI50 [1]
COC(=O)C1CC23C4=C(CCC41)CCC1CN4CC(C)C(CC(OC(C)=O)C12COC(C)=O)C43O (stereo not given)	> 100 µM	> 100 µM	> 100 µM	> 100 µM	> 100 µM	> 100 µM	> 100 µM	> 100 µM	> 100 µM	> 100 µM										
O/C(=C\c1nc2ccccc2nc1/C=C(\O)c1ccc(F)cc1)c1ccc(F)cc1	> 100 µM	> 100 µM	> 100 µM	> 100 µM	> 100 µM	> 100 µM	> 100 µM	> 100 µM	> 100 µM	> 100 µM										
Cn1c2[n+](c3nc(N)[nH]c(=O)c31)C1OC(C2)C(O)C1O (stereo not given)		> 100 µM	> 100 µM		> 100 µM	> 100 µM	> 100 µM	> 100 µM	> 100 µM	> 100 µM										
Cc1ccc2nc(-c3ccc(NC(=O)c4ccc(N)cc4)c(S(=O)(=O)O)c3)sc2c1	> 100 µM	> 100 µM	> 100 µM	> 100 µM	> 100 µM	> 100 µM	> 100 µM	> 100 µM	> 100 µM	> 100 µM										
O=C(Nc1ccc(-n2ccc3c(NC(=O)c4ccccc4)nccc32)cc1)Nc1cccc(C(F)(F)F)c1		15.3 µM	18.8 µM	24.8 µM	20.7 µM	14.2 µM	31.2 µM	10.1 µM	21 µM	27 µM	1.69 µM	3.87 µM	6.61 µM	7.2 µM	3.92 µM	13.7 µM	2.91 µM	7.36 µM	13.4 µM	
CCOCC(=O)N(C)c1cccc2c3c(n(C)c12)CCCCC3		> 100 µM		> 100 µM	> 100 µM	> 100 µM	> 100 µM	> 100 µM	> 100 µM	> 100 µM										
CS(C)(=O)=Nn1c(=O)n2n(c1=O)C1c3ccccc3C2c2ccccc21		> 100 µM	> 100 µM	> 100 µM	> 100 µM	> 100 µM	> 100 µM		> 100 µM											
N#Cc1ccccc1C#C/C=C\C#Cc1ccccc1N	> 28.2 µM		> 49.3 µM	> 100 µM	19 µM	> 100 µM	40.2 µM		> 74 µM	12.5 µM	2.94 µM	5.02 µM	67.9 µM	3.34 µM	4.22 µM	2.86 µM		9.78 µM	2.41 µM	8.39 µM
O=C1/C(=C/c2[nH]ncc2-c2ccc(Cl)cc2)C(=O)N(c2ccccc2)C1c1ccccc1 (stereo not given)	43.7 µM	27.2 µM	> 100 µM	> 100 µM	27.5 µM	37 µM	62.5 µM	25 µM	50.4 µM	85.7 µM										
O=S(=O)(O)c1ccc2c(N=Nc3ccc(N=Nc4ccccc4)cc3)c(O)c(S(=O)(=O)O)cc2c1	> 100 µM	> 100 µM	> 100 µM	> 100 µM	> 100 µM	> 100 µM	> 100 µM	> 100 µM	> 100 µM	> 100 µM										
O=C1C2Cc3c(n(C(=O)c4ccccc4)c4ccccc34)CC2C(=O)N1c1ccc(Nc2ccc(N3C(=O)C4Cc5c(n(C(=O)c6ccccc6)c6ccccc56)CC4C3=O)cc2)cc1 (stereo not given)	> 100 µM	> 100 µM	> 100 µM	> 100 µM	> 100 µM	46.1 µM	> 100 µM	> 100 µM	> 100 µM	> 100 µM										
Cc1cc(C)c2c(=O)n(CC(O)CN3CCN(CCOCCO)CC3)sc2n1 (stereo not given)	31.1 µM	32.1 µM	31.3 µM	34.2 µM	34.5 µM	54.4 µM	35.4 µM	30.8 µM	35.7 µM	37.1 µM										
CC1=C[C@@H](C)C[C@]2(C)CC[C@H](O2)[C@]23CC[C@](CO)(C[C@H](O2)[C@@H]2O[C@@](C)(CC2=O)[C@@H](O)[C@H]2CC[C@@]4(CCC[C@@H](O4)[C@H](C)C(=O)O[C@H]4C[C@H]([C@]5(O)OCC[C@H](C)[C@@H]5O)O[C@H]4C=C1)O2)O3	0.258 µM	> 2.1 µM	0.0714 µM	> 10 µM	> 10 µM	9.73 µM	0.196 µM	> 10 µM	0.0391 µM	> 10 µM										
Nc1nnc(CCC(=O)Nc2cc(Cl)ccc2Cl)n1N		> 100 µM	> 100 µM		> 100 µM	> 100 µM	> 100 µM	> 100 µM	> 100 µM	> 100 µM										
Nc1cc(S(=O)(=O)O)cc2ccc(S(=O)(=O)O)cc12	> 100 µM	> 100 µM	> 100 µM	> 100 µM	> 100 µM	> 100 µM	> 100 µM	> 100 µM	> 100 µM	> 100 µM										
O=C(/C=C1\N=C(c2ccccc2)N(c2nc3c(Cl)cc(Cl)cc3s2)C1=O)/C=C/c1ccccc1	> 100 µM	> 100 µM	> 100 µM	> 100 µM	> 100 µM	> 100 µM	> 100 µM	> 100 µM	> 100 µM	> 100 µM										
COc1cccc(/C=N/[N-]C(N)=O)c1[O-].[Ni+2].[OH3+]		0.25 µM	2.74 µM		1.65 µM	0.86 µM	2.2 µM	0.27 µM	1.72 µM	1.49 µM					0.111 µM					
